Laboratory results as given in ChEMBL document CHEMBL2074506, “Effects of ursodeoxycholic and cholic acid feeding on hepatocellular transporter expression in mouse liver” (Gastroenterology, 2001).

Columns and labels:
Type in all cases: functional, organism-based
[1] = molecular target: T1, Solute carrier organic anion transporter family member 1A1 (Mus musculus, UniProt Q9QXZ6); experiment: TP_TRANSPORTER: RT-PCR (mRNA level: reduction to 72 % of control) in vivo, liver of Him OF1 mouse
T1 sequence (Q9QXZ6 whole entry): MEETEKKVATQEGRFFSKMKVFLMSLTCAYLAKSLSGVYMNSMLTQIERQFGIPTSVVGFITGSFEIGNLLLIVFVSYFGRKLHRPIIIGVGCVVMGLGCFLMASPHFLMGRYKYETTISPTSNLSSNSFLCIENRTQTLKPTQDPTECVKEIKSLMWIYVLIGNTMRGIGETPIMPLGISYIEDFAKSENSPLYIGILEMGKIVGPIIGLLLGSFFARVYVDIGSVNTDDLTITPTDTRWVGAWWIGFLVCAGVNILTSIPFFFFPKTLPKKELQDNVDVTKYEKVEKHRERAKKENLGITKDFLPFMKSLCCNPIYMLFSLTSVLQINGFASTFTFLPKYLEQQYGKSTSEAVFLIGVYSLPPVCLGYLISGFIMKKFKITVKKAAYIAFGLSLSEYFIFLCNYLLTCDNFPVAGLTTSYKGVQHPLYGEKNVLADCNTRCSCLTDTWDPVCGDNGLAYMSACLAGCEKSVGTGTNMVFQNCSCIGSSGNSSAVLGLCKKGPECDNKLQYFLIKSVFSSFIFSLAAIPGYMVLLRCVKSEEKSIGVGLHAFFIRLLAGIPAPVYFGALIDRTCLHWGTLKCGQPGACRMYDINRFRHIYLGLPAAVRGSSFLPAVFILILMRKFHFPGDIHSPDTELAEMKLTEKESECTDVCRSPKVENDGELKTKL

[2] = molecular target: T2, ATP-binding cassette sub-family C member 2 (Mus musculus, UniProt Q8VI47); experiment: TP_TRANSPORTER: Western (protein level: increase to 350%) in vivo, liver of Him OF1 mouse
[3] = molecular target: T3, ATP-dependent translocase ABCB1 (Mus musculus, UniProt P21447); experiment: TP_TRANSPORTER: RT-PCR (mRNA level: 2 fold) in vivo, liver of Him OF1 mouse
[4] = molecular target: T2, ATP-binding cassette sub-family C member 2; experiment: TP_TRANSPORTER: RT-PCR (mRNA level: 3 fold) in vivo, liver of Him OF1 mouse
[5] = molecular target: T3, ATP-dependent translocase ABCB1; experiment: TP_TRANSPORTER: Western (protein level: increase to 220%) in vivo, liver of Him OF1 mouse
[6] = molecular target: T1, Solute carrier organic anion transporter family member 1A1; experiment: TP_TRANSPORTER: Western (protein level: reduction to 45% of control) in vivo, liver of Him OF1 mouse

Measured: Activity

T3 sequence (P21447 whole entry): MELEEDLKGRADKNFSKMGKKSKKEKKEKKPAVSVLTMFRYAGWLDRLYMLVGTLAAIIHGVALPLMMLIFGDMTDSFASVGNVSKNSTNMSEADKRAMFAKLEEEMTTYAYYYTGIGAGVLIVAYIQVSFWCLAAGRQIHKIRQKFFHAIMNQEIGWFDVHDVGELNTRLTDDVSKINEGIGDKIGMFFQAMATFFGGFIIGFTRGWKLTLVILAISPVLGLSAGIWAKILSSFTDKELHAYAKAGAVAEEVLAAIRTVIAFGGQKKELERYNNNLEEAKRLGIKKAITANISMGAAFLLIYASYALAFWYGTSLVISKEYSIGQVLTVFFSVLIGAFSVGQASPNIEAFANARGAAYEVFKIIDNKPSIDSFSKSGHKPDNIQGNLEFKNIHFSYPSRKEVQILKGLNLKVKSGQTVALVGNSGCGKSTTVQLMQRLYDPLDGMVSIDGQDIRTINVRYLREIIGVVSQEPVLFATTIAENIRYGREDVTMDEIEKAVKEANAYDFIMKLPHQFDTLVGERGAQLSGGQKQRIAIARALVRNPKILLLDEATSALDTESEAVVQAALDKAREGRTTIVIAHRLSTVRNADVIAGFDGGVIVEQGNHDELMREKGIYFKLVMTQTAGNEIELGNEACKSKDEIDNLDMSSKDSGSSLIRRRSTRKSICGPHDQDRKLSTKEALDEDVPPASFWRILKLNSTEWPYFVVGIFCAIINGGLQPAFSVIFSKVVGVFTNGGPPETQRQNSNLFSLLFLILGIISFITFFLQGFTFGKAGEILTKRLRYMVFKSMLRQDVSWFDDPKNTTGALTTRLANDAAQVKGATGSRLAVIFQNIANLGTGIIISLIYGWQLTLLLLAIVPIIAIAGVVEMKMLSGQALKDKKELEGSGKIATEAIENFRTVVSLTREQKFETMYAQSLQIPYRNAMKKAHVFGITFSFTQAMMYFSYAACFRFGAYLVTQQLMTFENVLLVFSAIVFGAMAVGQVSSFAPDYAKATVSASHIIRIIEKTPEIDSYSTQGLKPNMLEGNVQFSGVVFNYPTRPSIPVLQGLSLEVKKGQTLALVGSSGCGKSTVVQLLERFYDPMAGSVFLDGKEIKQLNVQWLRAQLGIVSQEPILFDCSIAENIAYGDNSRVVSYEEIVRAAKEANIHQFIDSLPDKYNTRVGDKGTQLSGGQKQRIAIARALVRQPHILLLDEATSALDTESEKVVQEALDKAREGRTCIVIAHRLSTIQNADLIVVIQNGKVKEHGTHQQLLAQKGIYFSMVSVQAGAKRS
T2 sequence (Q8VI47 whole entry): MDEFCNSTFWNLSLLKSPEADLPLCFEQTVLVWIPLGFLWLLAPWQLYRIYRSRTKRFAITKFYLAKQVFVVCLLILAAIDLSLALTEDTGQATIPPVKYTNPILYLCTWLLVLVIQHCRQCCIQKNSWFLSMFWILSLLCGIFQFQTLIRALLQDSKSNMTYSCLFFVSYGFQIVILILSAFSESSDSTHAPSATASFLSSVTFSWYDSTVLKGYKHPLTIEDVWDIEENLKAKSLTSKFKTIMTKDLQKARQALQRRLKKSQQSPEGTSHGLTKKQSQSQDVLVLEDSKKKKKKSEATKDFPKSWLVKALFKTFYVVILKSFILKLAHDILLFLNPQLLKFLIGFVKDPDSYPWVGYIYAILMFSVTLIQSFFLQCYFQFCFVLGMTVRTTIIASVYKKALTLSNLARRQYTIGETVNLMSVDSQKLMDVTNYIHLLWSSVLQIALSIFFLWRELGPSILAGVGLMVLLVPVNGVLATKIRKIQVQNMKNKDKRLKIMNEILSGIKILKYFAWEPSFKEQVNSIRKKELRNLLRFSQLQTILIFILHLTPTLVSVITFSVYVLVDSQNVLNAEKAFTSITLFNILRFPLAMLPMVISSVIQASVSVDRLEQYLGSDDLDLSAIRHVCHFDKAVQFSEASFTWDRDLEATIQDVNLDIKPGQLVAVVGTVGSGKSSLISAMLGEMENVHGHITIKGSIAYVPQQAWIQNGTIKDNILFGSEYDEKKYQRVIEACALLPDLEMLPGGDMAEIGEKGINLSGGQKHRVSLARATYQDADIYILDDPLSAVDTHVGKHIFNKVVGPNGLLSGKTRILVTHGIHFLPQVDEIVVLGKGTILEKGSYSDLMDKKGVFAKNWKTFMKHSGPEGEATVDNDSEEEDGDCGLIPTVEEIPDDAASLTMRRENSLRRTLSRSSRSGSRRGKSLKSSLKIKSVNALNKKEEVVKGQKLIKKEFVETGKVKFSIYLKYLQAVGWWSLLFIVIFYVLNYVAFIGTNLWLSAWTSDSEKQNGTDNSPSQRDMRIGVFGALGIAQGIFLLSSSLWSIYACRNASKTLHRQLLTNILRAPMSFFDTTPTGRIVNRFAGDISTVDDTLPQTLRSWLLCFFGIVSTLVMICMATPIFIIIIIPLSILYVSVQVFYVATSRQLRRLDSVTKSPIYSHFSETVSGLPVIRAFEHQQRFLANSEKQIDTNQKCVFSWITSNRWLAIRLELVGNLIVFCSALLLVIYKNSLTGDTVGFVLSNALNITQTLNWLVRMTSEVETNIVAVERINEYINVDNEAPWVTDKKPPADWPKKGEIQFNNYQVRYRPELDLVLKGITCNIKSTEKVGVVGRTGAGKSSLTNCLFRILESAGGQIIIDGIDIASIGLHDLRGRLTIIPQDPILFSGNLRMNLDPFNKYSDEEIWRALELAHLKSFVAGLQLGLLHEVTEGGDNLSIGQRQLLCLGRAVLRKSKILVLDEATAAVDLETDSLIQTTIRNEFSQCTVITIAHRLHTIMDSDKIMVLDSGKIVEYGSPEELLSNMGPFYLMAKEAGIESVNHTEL

C[C@H](CCC(=O)O)[C@H]1CC[C@H]2[C@@H]3[C@@H](O)C[C@@H]4C[C@H](O)CC[C@]4(C)[C@H]3CC[C@]12C [URSODIOL]
inducer [Decrease]: [1] | [6]
inducer [+]: all other assays above
